This data set in a line: Inhibitor Stability Test (HPLC, non-degraded NBTPT remaining after storage). To be noted: 2 weeks, RT (23 to 26° C.).

SMILES strings stand for the structures.

Protocol: Inhibitor Stability Test: The stability test is used to indicate changes in stability of the urease inhibitor in different coated fertilizers or coating compositions under multiple conditions for different amounts of time. HPLC analysis was used to determine the amount of non-degraded inhibitor remaining at the end of the testing periods. Briefly, for the HPLC analysis procedure, approximately 4 grams of a sample and 20 ml of diluent was added into a 50 ml polypropylene tube. The sample was sonicated for 30 minutes with intermediate shaking and then vortexed for 1 hour using a vortex shaker. After vortexing, the sample was filtered using a 0.45μ syringe filter into a HPLC vial and injected into the HPLC.
Chromatographic Conditions:
• Column: Phenomenex, Luna 5u Pnenyl hexyl 250*4.6, 5μ • Column oven temperature: 350° C. • Injection Vol.: 5 μL • Flow rate: 1.00 mL/min • Mobile Phase: Reservoir A—Milli Q Water; Reservoir C—Acetonitrile; Isocratic—Milli Q water/Acetonitrile (80:20% v/v) • Run Time: 15 minutes • Wavelength: 207 nm
Calculation: Calibration standards were injected in duplicate and the calibration curve for NBTPT was constructed by plotting the concentration (mg/mL) in X-axis and Instrument response (area) in the Y-axis. The unknown concentrations of NBTPT in the samples were calculated using the formula y=mx+c with the appropriate dilution factor applied. […]

Regarding `CCCCNP(N)(N)=S` [compound 4, N-(n-butyl) thiophosphoric triamide], the “% NBTPT Degradation” value amounted to 0%.

(Values after patent publication US12110258B2, “Coated fertilizer containing urease inhibitor” (SABIC Agri-Nutrients Company, priority 2018, dated 2024).)
